The test system of series [1] is PRDM16 morphant knockdown embryos and truncation mutant (p.K702X) transgenics. The experiment in a line: Cardiac function (cardiac output) by video microscopy in PRDM16 morphant and truncation mutant zebrafish embryos, rescue experiments. The class given is in vivo. The note with it: for rescue of reduced cardiac output (contractile impairment): injected into yolk sac at one-cell stage, MCL0020, HS014, SU9119 1 μM, JKC363 2 μM, HS024 200 nM, THIQ 1 μM and 500 μM. The method, then: Morpholinos directed against the translation start codon were 5'-[…] NO: 7) for prdm16 (Gene Tools (Philomath, Oreg.)) and were injected at the one cell stage. Concentrations of 0.2 mM were used. For cardiac-specific overexpression experiments the human PRDM16 truncation mutation ([…]) and the human PRDM16 wildtype were cloned downstream of the cmlc2 promoter into the Tol2kit expression system using Gateway technology (Invitrogen). PRDM16 constructs (15 ng/μl) were co-injected with 10 ng/μl capped Tol2 transposase mRNA into one-cell-stage zebrafish embryos.

Series [2] deals with healthy wildtype zebrafish embryos.
Experimental: MC4 receptor antagonists and agonists were dissolved in 100% DMSO to a stock concentration of 1 mM. Working solutions were diluted in nuclease free water. The concentrations for MCL0020, HS014, SU9119 were 1 μM, for JKC363 2 μM, HS024 200 nM and for the MC4 receptor agonist THIQ 1 μM and 500 μM.
(§1) Working solutions of 10 nM, 100 nM or 1 μM were diluted in 20 ml E3 water and zebrafish embryos were incubated directly after birth. Cardiac function was assessed at 48 hpf as described below.
For analysis of cardiac function embryos were laterally positioned and allowed to acclimate at 24° C. Video microscopy was performed on an Axioplan (Zeiss) upright microscope with a FastCam-PCI high-Speed digital camera (Photron) on top. 1088 frames were digitally captured at identical frame rates (250 frames per second) and magnification (5×). Sequential images were analyzed for heart rate and cardiac output using IMAGEJ and Excel. Experiments were repeated at least 3 times on each occasion using 10 animals.
Series [3] deals with PRDM16 mutant model as well as wildtype fish. The experiment in a line: Tail necrosis on norepinephrine incubation of zebrafish embryos. The note with it: high doses of norepinephrine. It is filed as in vivo.
Experimental: as §1
In series [4] the test system is PRDM16 morphant and mutant hearts. Description: Intercellular coupling / conduction velocity by optical mapping of isolated zebrafish embryo hearts. It is filed as in vivo. As to the method:
Intercellular coupling parameters in zebrafish embryo hearts were measured using previously reported techniques. Briefly, hearts were isolated from zebrafish embryos, stained with the transmembrane-potential-sensitive dye di-8-ANEPPS (Invitrogen) and placed into a perfusion chamber that was mounted onto the stage of an inverted microscope. Excitation light from a high-intensity Hg arc lamp was transmitted through a 525/50-nm bandpass filter and reflected onto the preparation via a 565-nm dichroic mirror. Fluorescence emission was filtered by a 685/80-nm bandpass filter and recorded at a rate of 2000 s^-1 by a high-speed CCD camera (CardioCCD-[…]). Single-pixel action potentials were extracted from the fluorescence data and conduction velocities were estimated using an established algorithm. Experiments were repeated at least 2 times with 5 animals. Immunofluorescence, Detection of Apotosis and Mitochondrial Assessment

The subject of series [5] is PRDM16 morphant and truncation mutant hearts. The experiment in a line: Cardiomyocyte proliferation (PCNA staining) in isolated hearts of PRDM16 morphant/mutant zebrafish. It is filed as in vivo. The note with it: hearts at 48 hpf. As to the method: For proliferation detection hearts from 48 hpf old zebrafish embryos were isolated and fixed in Prefer fixative (Anatech). The fixed hearts were stained with the primary antibodies rabbit anti-PCNA 1:200 (Abcam) and mouse anti-MF20 1:100 (DSHB), and the secondary antibodies donkey or goat anti-rabbit or mouse Alexa 488 or 546 conjugated (Invitrogen) 1:1,000. Hearts were mounted with ProLong Antifade reagent with DAPI mounting medium on a slide. Confocal images were analyzed using IMAGEJ.

A further series concerns PRDM16 mutants. Description: Apoptosis (TUNEL assay) in isolated hearts of PRDM16 mutant zebrafish. The class given is in vivo. The note with it: hearts at 48 hpf. The method, then: For detection of apoptosis hearts from 48 hpf old zebrafish embryos were isolated and fixed in 4% PFA/PBS for 30 min and washed twice in PBS-T for 30 min. TUNEL assay was performed by using the in situ cell detection kit from Roche. Hearts were mounted with ProLong Antifade reagent with DAPI on a slide and confocal images were analyzed using IMAGEJ.

The values below come from patent US9993516B2, “Treatment of left ventricular non-compaction and dilated cardiomyopathy by inhibiting melanocortin receptor four” (THE BRIGHAM AND WOMEN'S HOSPITAL, INC., priority 2013, dated 2018).

Regarding `O=C(N[C@H](Cc1ccc(Cl)cc1)C(=O)N1CCC(Cn2cncn2)(C2CCCCC2)CC1)[C@H]1Cc2ccccc2CN1` [THIQ], in series [1], the “rescue of reduced cardiac output (contractile impairment)” value is reported as “not able to rescue”. Besides, the “cardiac output in wildtype embryos” value in series [2] (THIQ 1 μM and 500 μM) is “decreases cardiac output”. In addition, the heart rate result in series [2] (THIQ, FIGS. 8A and 8B, fish group not given) is recorded as “not altered”.
As to `NC[C@H](O)c1ccc(O)c(O)c1` [norepinephrine], in series [1] (PRDM16 mutant model, norepinephrine doses of 10 nM up to 1 μM, incubation in E3 water, 48 hpf), the “rescue of contractile dysfunction” value is reported as “able to rescue”. The “necrosis of the tail” value in series [3] is reported as “necrosis of the tail”.
With HS024, the “rescue of reduced cardiac output (contractile impairment)” value in series [1] was “efficiently rescued”. For the same molecule, in series [4], the “disrupted coupling of cells (reduction in impulse propagation velocities)” value was “rescued”. In addition, the “decreased cardiomyocyte proliferation (percentage of PCNA positive cells)” value in series [5] is given as “prevented or reduced”. Besides, the increased apoptosis result in the series with PRDM16 mutants is given as “restored”.
